Source: ChEMBL document CHEMBL3046502, “In vitro antimicrobial and antitubercular studies of novel 6-substituted (pyrrolidin-1-yl)-2(1H)-pyridinones” (2012)
Converted amounts (≈) assume the structure as drawn.

Tests used:
Format in all cases: functional
[1] = test system: Staphylococcus aureus; assay: Antimicrobial activity against Staphylococcus aureus MTCC 96 by broth microdilution method
[2] = test system: Pseudomonas aeruginosa; assay: Antimicrobial activity against Pseudomonas aeruginosa MTCC 2488 by broth microdilution method
[3] = test system: Aspergillus niger; assay: Antimicrobial activity against Aspergillus niger MTCC 282
[4] = test system: Escherichia coli; assay: Antimicrobial activity against Escherichia coli MTCC 442 by broth microdilution method
[5] = test system: Candida albicans; assay: Antimicrobial activity against Candida albicans MTCC 227
[6] = test system: Mycobacterium tuberculosis; assay: Antimicrobial activity against Mycobacterium tuberculosis H37Rv; settings: for MIC: Mycobacterium tuberculosis, H37Rv
[7] = test system: Streptococcus pyogenes; assay: Antimicrobial activity against Streptococcus pyogenes MTCC 443 by broth microdilution method
[8] = test system: Aspergillus clavatus; assay: Antimicrobial activity against Aspergillus clavatus MTCC 1323

Structure (SMILES) | MIC [1] [µg/mL] | MIC [2] [µg/mL] | MIC [3] [µg/mL] | MIC [4] [µg/mL] | MIC [5] [µg/mL] | inhibition (INH) [6] [%] | MIC [6] [µg/mL] | MIC [7] [µg/mL] | MIC [8] [µg/mL]
COc1ccc(-c2cc(N3CCCC3)n(-c3cccc(Cl)c3)c(=O)c2/N=N/c2ccc(Cl)cc2[N+](=O)[O-])cc1 | 250 (≈ 443 µM) | 500 (≈ 886 µM) | 200 (≈ 354 µM) | 250 (≈ 443 µM) | 500 (≈ 886 µM) | 98 | 1000 (≈ 1770 µM) | 250 (≈ 443 µM) | 200 (≈ 354 µM)
COc1ccc(-c2cc(N3CCCC3)n(-c3cccc(Cl)c3)c(=O)c2/N=N/c2ccc([N+](=O)[O-])cc2Cl)cc1 | 200 (≈ 354 µM) | 250 (≈ 443 µM) | 500 (≈ 886 µM) | 250 (≈ 443 µM) | 250 (≈ 443 µM) | – | – | 200 (≈ 354 µM) | 500 (≈ 886 µM)
COc1ccc(-c2cc(N3CCCC3)n(-c3cccc(Cl)c3)c(=O)c2/N=N/c2cc(Cl)ccc2Cl)cc1 | 500 (≈ 903 µM) | 500 (≈ 903 µM) | > 1000 | 250 (≈ 451 µM) | 1000 (≈ 1810 µM) | – | – | 500 (≈ 903 µM) | > 1000
COc1ccc(-c2cc(N3CCCC3)n(-c3cccc(Cl)c3)c(=O)c2/N=N/c2ccc([N+](=O)[O-])cc2)cc1 | 250 (≈ 472 µM) | 250 (≈ 472 µM) | > 1000 | 250 (≈ 472 µM) | 250 (≈ 472 µM) | – | – | 250 (≈ 472 µM) | > 1000
COc1ccc(-c2cc(N3CCCC3)n(-c3cccc(Cl)c3)c(=O)c2/N=N/c2cccc([N+](=O)[O-])c2)cc1 | 250 (≈ 472 µM) | 200 (≈ 377 µM) | 500 (≈ 943 µM) | 200 (≈ 377 µM) | 500 (≈ 943 µM) | – | – | 250 (≈ 472 µM) | 500 (≈ 943 µM)
COc1ccc(-c2cc(N3CCCC3)n(-c3cccc(Cl)c3)c(=O)c2/N=N/c2ccccc2[N+](=O)[O-])cc1 | 100 (≈ 189 µM) | 200 (≈ 377 µM) | 500 (≈ 943 µM) | 100 (≈ 189 µM) | 500 (≈ 943 µM) | – | – | 100 (≈ 189 µM) | 500 (≈ 943 µM)
COc1ccc(-c2cc(N3CCCC3)n(-c3cccc(Cl)c3)c(=O)c2/N=N/c2ccc(C)cc2)cc1 | 200 (≈ 401 µM) | 200 (≈ 401 µM) | 250 (≈ 501 µM) | 200 (≈ 401 µM) | 250 (≈ 501 µM) | – | – | 200 (≈ 401 µM) | 250 (≈ 501 µM)
COc1ccc(-c2cc(N3CCCC3)n(-c3cccc(Cl)c3)c(=O)c2/N=N/c2cccc(C)c2)cc1 | 150 (≈ 301 µM) | 250 (≈ 501 µM) | 500 (≈ 1000 µM) | 250 (≈ 501 µM) | 500 (≈ 1000 µM) | – | – | 200 (≈ 401 µM) | 500 (≈ 1000 µM)
COc1ccc(-c2cc(N3CCCC3)n(-c3cccc(Cl)c3)c(=O)c2/N=N/c2ccccc2C)cc1 | 500 (≈ 1000 µM) | 500 (≈ 1000 µM) | 1000 (≈ 2000 µM) | 200 (≈ 401 µM) | 1000 (≈ 2000 µM) | – | – | 500 (≈ 1000 µM) | 1000 (≈ 2000 µM)
COc1ccc(-c2cc(N3CCCC3)n(-c3cccc(Cl)c3)c(=O)c2/N=N/c2ccc(Cl)cc2)cc1 | 500 (≈ 963 µM) | 500 (≈ 963 µM) | 1000 (≈ 1930 µM) | 500 (≈ 963 µM) | 1000 (≈ 1930 µM) | – | – | 500 (≈ 963 µM) | 1000 (≈ 1930 µM)
COc1ccc(-c2cc(N3CCCC3)n(-c3cccc(Cl)c3)c(=O)c2/N=N/c2cccc(Cl)c2)cc1 | 100 (≈ 193 µM) | 500 (≈ 963 µM) | 500 (≈ 963 µM) | 500 (≈ 963 µM) | 250 (≈ 481 µM) | – | – | 100 (≈ 193 µM) | 500 (≈ 963 µM)
COc1ccc(-c2cc(N3CCCC3)n(-c3cccc(Cl)c3)c(=O)c2/N=N/c2ccccc2Cl)cc1 | 250 (≈ 481 µM) | 100 (≈ 193 µM) | 250 (≈ 481 µM) | 100 (≈ 193 µM) | 500 (≈ 963 µM) | – | – | 250 (≈ 481 µM) | 250 (≈ 481 µM)
COc1ccc(-c2cc(N3CCCC3)n(-c3cccc(Cl)c3)c(=O)c2/N=N/c2ccccc2)cc1 | 200 (≈ 412 µM) | 100 (≈ 206 µM) | 500 (≈ 1030 µM) | 62.5 (≈ 129 µM) | 200 (≈ 412 µM) | – | – | 250 (≈ 515 µM) | 500 (≈ 1030 µM)
COc1ccc(-c2cc(Cl)n(-c3cccc(Cl)c3)c(=O)c2)cc1 | 200 (≈ 578 µM) | 100 (≈ 289 µM) | 500 (≈ 1440 µM) | 100 (≈ 289 µM) | 500 (≈ 1440 µM) | – | – | 200 (≈ 578 µM) | 500 (≈ 1440 µM)
CC1(C)S[C@@H]2[C@H](NC(=O)[C@H](N)c3ccccc3)C(=O)N2[C@H]1C(=O)O [AMPICILLIN] | 250 (≈ 715 µM) | 100 (≈ 286 µM) | – | 100 (≈ 286 µM) | – | – | – | 100 (≈ 286 µM) | –
O=C(O)c1cn(C2CC2)c2cc(N3CCNCC3)c(F)cc2c1=O [CIPROFLOXACIN] | 50 (≈ 151 µM) | – | – | 25 (≈ 75.4 µM) | – | – | – | 50 (≈ 151 µM) | –
COC1=CC(=O)C[C@@H](C)[C@]12Oc1c(Cl)c(OC)cc(OC)c1C2=O [GRISEOFULVIN] | – | – | 100 (≈ 283 µM) | – | 500 (≈ 1420 µM) | – | – | – | 100 (≈ 283 µM)
CO[C@H]1/C=C/O[C@@]2(C)Oc3c(C)c(O)c4c(O)c(c(/C=N/N5CCN(C)CC5)c(O)c4c3C2=O)NC(=O)/C(C)=C\C=C\[C@H](C)[C@H](O)[C@@H](C)[C@@H](O)[C@@H](C)[C@H](OC(C)=O)[C@@H]1C [RIFAMPIN] | – | – | – | – | – | 98 | 40 (≈ 48.6 µM) | – | –
